Measured values as given in US20020094524A1, “Compositions and methods for inhibiting HIV infection” (priority 2000, published 2002).

Experiments:
[1] = test system: HIV LTR promoter; experiment: HIV LTR-driven CAT activity assay in U38 cells; assay type: cell-based
Text: ACH-2 and U38 cell lines (25, 26) were obtained from the NIH AIDS Reagent Program. DNA extracted from ACH-2 cells was used as a positive standard for HIV DNA PCR as previously reported (27). The U38 cell line contains stably integrated, silent copies of the HIV LTR (long terminal repeat) promoter linked to a CAT (chloramphenicol acetyltransferase) gene and was used to study the effect of SP and/or CP-96,345 and R-113281 on the activation of HIV LTR promoter.
Chloramphenicol acetyltransferase (CAT) activity assay:U38 cells (2×10^6 cells) were incubated with different concentrations of SP and/or CP-96,345 or R-113281 for 48 h. Untreated U38 cells were used as a background control. Cellular proteins were extracted using 1× Reporter Lysis Bufffer (Promega Corp., Madison, Wis.). The lysates were incubated with a mixture containing 0.15 μCi of ^14C-labeled chloramphenicol (DuPont Inc., Boston, Mass.) and 200 μg/ml of n-Butyryl CoA (Promega Corp., Madison, Wis.) in a total volume of 125 μl at 37° C. for 3 h. The acetylated forms of chloramphenicol were extracted with xylene (Aldrich Chemical Company, Milwaukee, Wis.). CAT activity of each sample was quantified using a liquid-scintillation counter (Packard Instrument Company, Downers Grove, Ill.). The results were expressed as the ratio of CAT activity (CPM) of the SP and/or CP-96,345-treated or R-113281-treated U38 to that of the background control.

[2] = test system: HIV Bal strain; experiment: HIV RT activity in HIV Bal strain-infected MDM; assay type: cell-based, HIV-1; settings: for HIV RT activity increased: MDM, 12 days after infection (FIG. 1A)
Procedure: The cells were also incubated with SP and/or anti-SP antibody. In this case, SP was incubated with (1:1000 dilution in 10% FCS DMEM) or without anti-SP antibody at room temperature for 10 min and then the mixture was added to the cell cultures for 2 h. When the cells were treated with the combination of CP-96,345 and SP, or CP-96,345, SP and anti-SP antibody, CP-96,345 was incubated with the cell culture for 10 min and then SP was added to the MDM or CP-96,345, SP and anti-SP (1:1000 in 10% FCS DMEM) were incubated for 10 min at room temperature and the mixture was incubated with the MDM for 2 h before infection with HIV. Untreated MDM served as controls. The cells were treated prior to, during, and throughout the infection.
HIV Infection: After 2 h incubation with or without the reagents described above, the cells were infected with equal amounts of cell-free HIV based on p24 antigen content (20 ng/10^6 cells) overnight, and then washed to remove unbound virus. Fresh media containing SP and/or CP-96,345 or anti-SP antibody were added to the MDM as described above. The culture media and the reagents were replaced twice weekly. The culture supernatants were harvested for HIV reverse transcriptase (RT) activity determinations. After HIV infection, the MDM were incubated for 8 to 12 days. At the termination of the experiments, cellular RNA was extracted for assessment of HIV gag gene expression using RT-PCR or real time RT-PCR assays.
The HIV RT activity assay was carried out based on the technique of Willey et al. (30) with modification (22).

[3] = test system: CCR5; experiment: Macrophage receptor expression by flow cytometry; assay type: cell-based, human; settings: overnight/24 h; among CD4, CCR5, CXCR4 and CD14 only CCR5 changed (FIG. 8)
Procedure: The cells were removed from the culture plate and then resuspended in 100 μl of phosphate-buffered saline (PBS). After incubation with 20 μl of either anti-CCR5-FITC or anti-CXCR4-FITC or anti-CD4-FITC or anti-CD14-FITC for 45 min at 4° C., the cells were washed twice with PBS and fixed with 1% paraformaldehyde in PBS. Fluorescein-conjugated control antibodies were isotype-matched IgG. Fluorescence was analyzed on an EPICS-Elite flow cytometer (Beckman-Coulter Electronics, Hialeah, Fla.).

Compound | HIV LTR-driven CAT activity vs untreated baseline ([1]; SP 10^−5M, 48 hours (FIG. 16)) | HIV LTR-driven CAT activity vs untreated control cells ([1]; SP 10^−10 to 10^−6M, 48 h, P<0.05 (FIG. 7)) | effect of SP alone on HIV replication (RT activity and gag mRNA) ([2]; SP 10^−6M, 12 days after infection (FIG. 5)) | HIV RT activity increased ([2]; SP 10^−6M) [%] | HIV RT activity increased ([2]; SP 10^−8M) [%] | HIV RT activity increased ([2]; SP 10^−10M) [%] | viral replication by HIV RT activity vs HIV infection control ([2]; 10^−7M, 8 days after infection (FIG. 4)) | CCR5 receptor expression on MDM (percentage positive cells) [3]
Substance P [SP] | significantly increases | significantly increased | enhanced HIV replication | 58 | 40 | 14 |  | 
COc1ccccc1CN[C@H]1C2CCN(CC2)[C@H]1C(c1ccccc1)c1ccccc1 [CP-96,344] |  |  |  |  |  |  | did not have the effect | did not affect
